Results: ChEMBL document CHEMBL1151474, “Replication of Colonic Crohn's Disease Mucosal Escherichia coli Isolates within Macrophages and Their Susceptibility to Antibiotics” (Antimicrob Agents Chemother, 2008)
In brackets after ≈: the same amount, converted by molar mass. Activity calls are given as the source filed them. The calls are words filed in the database; no cut-off is given here.

Experiments:
[1] = test system: Escherichia coli; assay: Antibacterial activity against Escherichia coli ATCC 25922 after 24 hrs by Etest antibiotic concentration gradient method; assay type: functional, organism-based
[2] = test system: Escherichia coli; assay: Antibacterial activity against gentamicin-treated internalized Escherichia coli isolate HM580 in mouse J774A1 cells isolated from colonic mucosal biopsies of patient with Crohn's disease assessed as intracellular killing of bacteria at 10% compound Cmax after 3 hrs; assay type: functional, J774.A1
[3] = Cmax in immunodeficiency virus-infected patient at 800 mg, po by high-pressure liquid chromatography; conditions: human, in vivo
[4] = test system: Escherichia coli; assay: Antibacterial activity against gentamicin-treated internalized Escherichia coli isolate HM605 in mouse J774A1 cells isolated from colonic mucosal biopsies of patient with Crohn's disease assessed as intracellular killing of bacteria at 10% compound Cmax after 3 hrs; assay type: functional, J774.A1
[5] = test system: Escherichia coli; assay: Antibacterial activity against gentamicin-treated internalized Escherichia coli isolate LF82 in mouse J774A1 cells isolated from chronic ileal lesions of patient with Crohn's disease assessed as intracellular killing of bacteria at 10% compound Cmax after 3 hrs; assay type: functional, J774.A1
[6] = test system: Escherichia coli; assay: Antibacterial activity against gentamicin-treated internalized Escherichia coli isolate HM615 in mouse J774A1 cells isolated from colonic mucosal biopsies of patient with Crohn's disease assessed as intracellular killing of bacteria at 10% compound Cmax after 3 hrs; assay type: functional, J774.A1
[7] = test system: Escherichia coli; assay: Antibacterial activity against Escherichia coli isolate HM605 isolated from colonic mucosal biopsies of patient with Crohn's disease after 24 hrs by Etest antibiotic concentration gradient method; assay type: functional; conditions: isolate HM605, 24 h
[8] = test system: J774.A1; assay: Cytotoxicity against mouse J774A1 cells assessed as release of adenylate kinase at 100 ug/ml after 3 hrs […] relative to control; assay type: cell-based; conditions: j774.a1, 3 h
[9] = test system: Escherichia coli; assay: Antibacterial activity against mucosa-associated Escherichia coli isolates isolated from patients with Crohn's disease by disk diffusion method; assay type: functional
[10] = test system: Escherichia coli; assay: Antibacterial activity against mucosa-associated Escherichia coli isolate HM454 isolated from patient with irritable bowel syndrome or sporadic polyps after 24 hrs by Etest antibiotic concentration gradient method; assay type: functional; conditions: isolate HM454, 24 h
[11] = test system: Escherichia coli; assay: Antibacterial activity against Escherichia coli isolate HM154 isolated from colonic mucosal biopsies of patient with Crohn's disease after 24 hrs by Etest antibiotic concentration gradient method; assay type: functional; conditions: isolate HM154, 24 h
[12] = test system: Escherichia coli; assay: Antibacterial activity against Escherichia coli isolate HM615 isolated from colonic mucosal biopsies of patient with Crohn's disease after 24 hrs by Etest antibiotic concentration gradient method; assay type: functional; conditions: isolate HM615, 24 h
[13] = test system: Escherichia coli; assay: Antibacterial activity against Escherichia coli isolate HM605 isolated from colonic mucosal biopsies of patient with Crohn's disease
[14] = test system: Escherichia coli; assay: Antibacterial activity against mucosa-associated Escherichia coli isolate HM456 isolated from patient with irritable bowel syndrome or sporadic polyps after 24 hrs by Etest antibiotic concentration gradient method; assay type: functional; conditions: isolate HM456, 24 h
[15] = test system: Escherichia coli; assay: Antibacterial activity against gentamicin-treated internalized Escherichia coli isolate HM605 isolated from colonic mucosal biopsies of patient with Crohn's disease in mouse J774A1 cells assessed as intracellular killing of bacteria at […] ug/ml after 3 hrs; assay type: functional, J774.A1
[16] = test system: Escherichia coli; assay: Antibacterial activity against Escherichia coli isolates isolated from patients with Crohn's disease at 5 ug/disk by susceptibility testing disk method; assay type: functional
[17] = test system: Escherichia coli; assay: Antibacterial activity against Escherichia coli isolate HM95 isolated from ileal mucosal biopsies of patient with Crohn's disease after 24 hrs by Etest antibiotic concentration gradient method; assay type: functional; conditions: isolate HM95, 24 h
[18] = test system: J774.A1; assay: Cytotoxicity against mouse J774A1 cells assessed as macrophage number at […] ug/ml after 3 hrs by total cell protein assay; assay type: cell-based; conditions: j774.a1, 3 h
[19] = test system: Escherichia coli; assay: Antibacterial activity against extracellular Escherichia coli isolate HM605 isolated from colonic mucosal biopsies of patient with Crohn's disease at 0.01 to 10 ug/ml after 3 hrs; assay type: functional, organism-based
[20] = test system: Escherichia coli; assay: Antibacterial activity against Escherichia coli isolate HM580 isolated from colonic mucosal biopsies of patient with Crohn's disease after 24 hrs by Etest antibiotic concentration gradient method; assay type: functional; conditions: isolate HM580, 24 h
[21] = test system: Escherichia coli; assay: Antibacterial activity against mucosa-associated Escherichia coli isolate HM428 isolated from patient with irritable bowel syndrome or sporadic polyps after 24 hrs by Etest antibiotic concentration gradient method; assay type: functional; conditions: isolate HM428, 24 h
[22] = test system: Escherichia coli; assay: Antibacterial activity against Escherichia coli K-12 after 24 hrs by Etest antibiotic concentration gradient method; assay type: functional; conditions: K-12, 24 h
[23] = test system: Escherichia coli; assay: Antibacterial activity Escherichia coli isolate HM419 isolated from ileo-colonic mucosal biopsies of patient with Crohn's disease after 24 hrs by Etest antibiotic concentration gradient method; assay type: functional; conditions: isolate HM419, 24 h
[24] = test system: Escherichia coli; assay: Antibacterial activity Escherichia coli isolate HM413 isolated from ileo-colonic mucosal biopsies of patient with Crohn's disease after 24 hrs by Etest antibiotic concentration gradient method; assay type: functional; conditions: isolate HM413, 24 h
[25] = species on record: Homo sapiens; assay: Cmax in human; assay type: ADME, organism-based; conditions: in vivo
[26] = test system: Escherichia coli; assay: Antibacterial activity against Escherichia coli isolates isolated from patients with Crohn's disease at 15 ug/disk by susceptibility testing disk method; assay type: functional
[27] = test system: Escherichia coli; assay: Antibacterial activity against gentamicin-treated internalized Escherichia coli isolate HM605 isolated from colonic mucosal biopsies of patient with Crohn's disease in mouse J774A1 cells assessed as intracellular killing of bacteria at 0.4 ug/ml after 3 hrs; assay type: functional, J774.A1
[28] = Cmax in patient with Crohn's disease at 500 mg administered orally; assay type: ADME, organism-based; set-up: dose 500 mg, route oral; conditions: human, in vivo, po

Question: For Cc1cc(NS(=O)(=O)c2ccc(N)cc2)no1 [SULFAMETHOXAZOLE], which Activity [1] is on record?
Answer: Active

Question: And the Activity [2]?
Answer: 58.7%

Question: What about the Cmax [3] of the same molecule?
Answer: 40000 ng/mL

Question: And the Activity [4]?
Answer: 39.8%

Question: And the Activity [5]?
Answer: 63.2%

Question: And the Activity [6]?
Answer: 71.5%

Question: And the MIC [7]?
Answer: > 1020 µg/mL

Question: And the Activity [8]?
Answer: 90%

Question: With CCn1cc(C(=O)O)c(=O)c2ccc(C)nc21 [NALIDIXIC ACID] as the molecule, how does the Activity [9] read?
Answer: 100%

Question: And the Activity [8]?
Answer: 90%

Question: For O=C(N[C@H](CO)[C@H](O)c1ccc([N+](=O)[O-])cc1)C(Cl)Cl [CHLORAMPHENICOL], which Activity [9] is on record?
Answer: 62%

Question: And the Activity [8]?
Answer: 90%

Question: For CO[C@H]1/C=C/O[C@@]2(C)Oc3c(C)c(O)c4c(O)c(c(/C=N/N5CCN(C)CC5)c(O)c4c3C2=O)NC(=O)/C(C)=C\C=C\[C@H](C)[C@H](O)[C@@H](C)[C@@H](O)[C@@H](C)[C@H](OC(C)=O)[C@@H]1C [RIFAMPIN], which MIC [10] is on record?
Answer: ≥ 4 µg/mL

Question: What about the Activity [2] of the same molecule?
Answer: 35.8%

Question: What about the MIC [11] of the same molecule?
Answer: ≥ 4 µg/mL

Question: And the MIC [12]?
Answer: ≥ 4 µg/mL

Question: And the Activity [4]?
Answer: 32.6%

Question: And the MBC [13]?
Answer: 3 µg/mL (≈ 3.65 µM)

Question: What about the Activity [5] of the same molecule?
Answer: 32.8%

Question: And the Activity [6]?
Answer: 80.2%

Question: And the MIC [7]?
Answer: 6 µg/mL (≈ 7.29 µM)

Question: And the MIC [14]?
Answer: ≥ 4 µg/mL

Question: And the Activity [15]?
Answer: 85.1%

Question: What about the Activity [16] of the same molecule?
Answer: 0%

Question: What about the MIC [17] of the same molecule?
Answer: ≥ 4 µg/mL

Question: What about the Activity [18] of the same molecule?
Answer: 94.4

Question: What about the Activity [19] of the same molecule?
Answer: Active

Question: And the Activity [8]?
Answer: 90%

Question: What about the MIC [20] of the same molecule?
Answer: ≥ 4 µg/mL

Question: And the MIC [21]?
Answer: ≥ 4 µg/mL

Question: What about the MIC [22] of the same molecule?
Answer: 3 µg/mL (≈ 3.65 µM)

Question: What about the MIC [23] of the same molecule?
Answer: ≥ 4 µg/mL

Question: And the MIC [24]?
Answer: 2 µg/mL (≈ 2.43 µM)

Question: With GENTAMICIN as the molecule, how does the Activity [8] read?
Answer: 90%

Question: What about the Cmax [25] of the same molecule?
Answer: 18000 ng/mL

Question: What does the source list for CC[C@H]1OC(=O)[C@H](C)[C@@H](O[C@H]2C[C@@](C)(OC)[C@@H](O)[C@H](C)O2)[C@H](C)[C@@H](O[C@@H]2O[C@H](C)C[C@H](N(C)C)[C@H]2O)[C@](C)(O)C[C@@H](C)CN(C)[C@H](C)[C@@H](O)[C@]1(C)O [AZITHROMYCIN]?
Answer: MIC [10]: ≤ 2 µg/mL; MIC [11]: ≤ 2 µg/mL; Activity [26]: 78%; MIC [12]: ≤ 2 µg/mL; MBC [13]: 5 µg/mL (≈ 6.68 µM); MIC [7]: 3 µg/mL (≈ 4.01 µM); Activity [27]: 41%; MIC [14]: ≤ 2 µg/mL; MIC [17]: ≤ 2 µg/mL; Activity [19]: Active; Activity [8]: 90%; MIC [20]: ≤ 2 µg/mL; MIC [21]: ≤ 2 µg/mL; MIC [23]: ≤ 2 µg/mL; MIC [24]: ≤ 2 µg/mL; Cmax [28]: 400 ng/mL
